Measurements as given in patent US7563899B2, “(S)-N-methylnaltrexone” (Progenics Pharmaceuticals, Inc., priority 2005, dated 2009).
Where a name gives a salt, the structure may show the parent alone.

Target: human recombinant mu opioid receptors (Homo sapiens, UniProt P35372)
Assay: Radioligand binding assay, mu opioid receptor
Procedure: Radioligand binding assays were conducted to determine the binding specificity of S-N-methynaltrexone for μ-, κ-, and δ-opiate receptors using methods adapted from scientific literature (Simonin, F et al 1994, Mol. Pharmacol 46:1015-1021; Maguire, P. et al 1992, Eur. J. Pharmacol. 213:219-225; Simonin, F. et al PNAS USA 92(15):1431-1437; Wang, J B 1994, FEBS Lett 338:217-222).

human recombinant mu opioid receptors, sequence (P35372 whole entry): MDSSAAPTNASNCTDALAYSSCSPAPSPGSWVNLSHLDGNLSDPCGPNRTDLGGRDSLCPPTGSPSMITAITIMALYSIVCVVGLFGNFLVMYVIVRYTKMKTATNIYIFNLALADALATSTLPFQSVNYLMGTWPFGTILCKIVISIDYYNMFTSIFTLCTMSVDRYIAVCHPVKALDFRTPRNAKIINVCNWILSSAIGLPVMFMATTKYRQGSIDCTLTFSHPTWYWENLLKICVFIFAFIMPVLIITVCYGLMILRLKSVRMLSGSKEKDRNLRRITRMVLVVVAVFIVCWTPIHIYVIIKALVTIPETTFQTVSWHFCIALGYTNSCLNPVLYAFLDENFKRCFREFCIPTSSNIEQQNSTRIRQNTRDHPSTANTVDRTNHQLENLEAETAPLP

C[N@@+]1(CC2CC2)CC[C@]23c4c5ccc(O)c4OC2C(=O)CCC3(O)C1C5 (stereo partly drawn) [S-MNTX, (S)-N-(cyclopropylmethyl)-noroxymorphone methyl salt]
Ki: 0.198 µM
